Results from US20240002391A1, “4-ALKOXYPYRROLO[2,1-F][1,2,4]TRIAZINES AND PREPARATION AND USES THEREOF” (BioSplice Therapeutics, Inc., priority 2022, published 2024).
pIC50: −log10 of the molar value.

These compounds were tested against recombinant DYRK1A kinase (Homo sapiens (Human), UniProt Q13627) (assay: DYRK1A kinase assay (Ser/Thr 18 peptide Z-lyte FRET)). Settings: DYRK1A kinase activity, Z-lyte Ser/Thr 18 peptide, 15 μM ATP; method text calls the value IC50; read-out: EC50 (the source's name).
Assay type: biochemical
Method in brief: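 Steps: combine 0.25 μg/mL kinase, 15 μM ATP and 4 μM peptide with test compound; incubate 1 h at room temperature; add diluted development reagent for another hour; read coumarin and fluorescein emission at Ex 400. The emission ratio yields percent phosphorylation, from which IC50 is derived.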

In order of rising pIC50:
1. CN1C[C@H](F)[C@H](Nc2nc(O)c3c(-c4cnc5nccn5c4)ccn3n2)C1 [Compound 261, 2-(((3R,4S)-4-Fluoro-1-methylpyrrolidin-3-yl)amino)-5-(imidazo[1,2-a]pyrimidin-6-yl)pyrrolo[2,1-f][1,2,4]triazin-4-ol]  6.81
2. COc1nc(N[C@H]2CC[C@H](OC)CC2)nn2ccc(-c3ccn4nccc4c3)c12 [Compound 10, 4-Methoxy-N-(trans-4-methoxycyclohexyl)-5-(pyrazolo[1,5-a]pyridin-5-yl)pyrrolo[2,1-f][1,2,4]triazin-2-amine]  7.03
3. COc1nc(N[C@@H]2[C@@H]3COC[C@@H]32)nn2ccc(-c3ccn4nccc4c3)c12 [Compound 80, N-((1R,5S,6s)-3-Oxabicyclo[3.1.0]hexan-6-yl)-4-methoxy-5-(pyrazolo[1,5-a]pyridin-5-yl)pyrrolo[2,1-f][1,2,4]triazin-2-amine]  7.25
4. COc1nc(NC2CCN(C3CC(F)(F)C3)CC2)nn2ccc(-c3ccc4ncccc4c3)c12 [Compound 306, N-(1-(3,3-Difluorocyclobutyl)piperidin-4-yl)-4-methoxy-5-(quinolin-6-yl)pyrrolo[2,1-f][1,2,4]triazin-2-amine]  7.55
5. COc1nc(N[C@H]2C[C@@](C)(N)C2)nn2ccc(-c3ccn4nccc4c3)c12 [Compound 95, cis-N1-(4-Methoxy-5-(pyrazolo[1,5-a]pyridin-5-yl)pyrrolo[2,1-f][1,2,4]triazin-2-yl)-3-methylcyclobutane-1,3-diamine]  8.09
6. COc1nc(N[C@@H]2CCNCC2(F)F)nn2ccc(-c3ccc4ncnn4c3)c12 [Compound 575, (R)-5-([1,2,4]Triazolo[1,5-a]pyridin-6-yl)-N-(3,3-difluoropiperidin-4-yl)-4-methoxypyrrolo[2,1-f][1,2,4]triazin-2-amine]  8.16
7. COCCO[C@H]1CC[C@@H](Nc2nc(OC)c3c(-c4ccc5nccn5c4)ccn3n2)CC1 [Compound 51, 5-(Imidazo[1,2-a]pyridin-6-yl)-4-methoxy-N-(cis-4-(2-methoxyethoxy)cyclohexyl)pyrrolo[2,1-f][1,2,4]triazin-2-amine]  8.17
8. COc1nc(N[C@H](C)c2ccccc2)nn2ccc(-c3cnc4nccn4c3)c12 [Compound 233, (R)-5-(Imidazo[1,2-a]pyrimidin-6-yl)-4-methoxy-N-(1-phenylethyl)pyrrolo[2,1-f][1,2,4]triazin-2-amine]  8.17
9. COc1nc(N[C@H]2CC[C@@](O)(C(F)(F)F)CC2)nn2ccc(-c3ccc4nccnc4c3)c12 [Compound 349, trans-4-((4-Methoxy-5-(quinoxalin-6-yl)pyrrolo[2,1-f][1,2,4]triazin-2-yl)amino)-1-(trifluoromethyl)cyclohexan-1-ol]  8.18
10. COc1nc(NC[C@@H]2CNCCO2)nn2ccc(-c3ccc4nnn(C)c4c3)c12 [Compound 623, (S)-4-Methoxy-5-(1-methyl-1H-benzo[d][1,2,3]triazol-6-yl)-N-(morpholin-2-ylmethyl)pyrrolo[2,1-f][1,2,4]triazin-2-amine]  8.29
11. COc1nc(N[C@H]2CN(C3COC3)C[C@H]2F)nn2ccc(-c3ccc4nc(C)n(CC(F)F)c4c3)c12 [Compound 505, 5-(1-(2,2-Difluoroethyl)-2-methyl-1H-benzo[d]imidazol-6-yl)-N-((3S,4R)-4-fluoro-1-(oxetan-3-yl)pyrrolidin-3-yl)-4-methoxypyrrolo[2,1-f][1,2,4]triazin-2-amine]  8.42
12. CCn1nnc2ccc(-c3ccn4nc(N[C@H]5CCN(C6COC6)C[C@H]5F)nc(OC)c34)cc21 [Compound 646, 5-(1-Ethyl-1H-benzo[d][1,2,3]triazol-6-yl)-N-((3R,4S)-3-fluoro-1-(oxetan-3-yl)piperidin-4-yl)-4-methoxypyrrolo[2,1-f][1,2,4]triazin-2-amine]  8.47
13. COc1nc(N[C@H]2C[C@@](C)(NC(C)=O)C2)nn2ccc(-c3ccc4nc(C)n(CC(F)F)c4c3)c12 [Compound 108, N-(cis-3-((5-(1-(2,2-Difluoroethyl)-2-methyl-1H-benzo[d]imidazol-6-yl)-4-methoxypyrrolo[2,1-f][1,2,4]triazin-2-yl)amino)-1-methylcyclobutyl)acetamide]  8.48
14. c1cnc2cc(-c3ccn4nc(NC5CCC6(CC5)COC6)nc(OC5COC5)c34)ccc2n1 [Compound 1138, 4-(Oxetan-3-yloxy)-5-(quinoxalin-6-yl)-N-(2-oxaspiro[3.5]nonan-7-yl)pyrrolo[2,1-f][1,2,4]triazin-2-amine]  8.48
15. COc1nc(N[C@H]2CN(C)C[C@H]2F)nn2ccc(-c3ccc4nc(C)n(CC(F)F)c4c3)c12 [Compound 113, 5-(1-(2,2-Difluoroethyl)-2-methyl-1H-benzo[d]imidazol-6-yl)-N-((3S,4R)-4-fluoro-1-methylpyrrolidin-3-yl)-4-methoxypyrrolo[2,1-f][1,2,4]triazin-2-amine]  8.48
16. COc1nc(N[C@@H]2CCN(C)C[C@@H]2F)nn2ccc(-c3ccc4nc(C)n(CC(F)F)c4c3)c12 [Compound 124, 5-(1-(2,2-Difluoroethyl)-2-methyl-1H-benzo[d]imidazol-6-yl)-N-((3S,4R)-3-fluoro-1-methylpiperidin-4-yl)-4-methoxypyrrolo[2,1-f][1,2,4]triazin-2-amine]  8.55
17. COc1nc(NC23CC(N)(C2)C3)nn2ccc(-c3ccc4nccnc4c3)c12 [Compound 381, N1-(4-Methoxy-5-(quinoxalin-6-yl)pyrrolo[2,1-f][1,2,4]triazin-2-yl)bicyclo[1.1.1]pentane-1,3-diamine]  8.60
18. COc1nc(N[C@@H](C)C2COC2)nn2ccc(-c3cnc4nccn4c3)c12 [Compound 928, (S)-5-(Imidazo[1,2-a]pyrimidin-6-yl)-4-methoxy-N-(1-(oxetan-3-yl)ethyl)pyrrolo[2,1-f][1,2,4]triazin-2-amine]  8.70
19. CCC(=O)N1CC[C@H](Nc2nc(OC)c3c(-c4ccc5nnn(CCF)c5c4)ccn3n2)[C@H](F)C1 [Compound 1143, 1-((3R,4S)-3-Fluoro-4-((5-(1-(2-fluoroethyl)-1H-benzo[d][1,2,3]triazol-6-yl)-4-methoxypyrrolo[2,1-f][1,2,4]triazin-2-yl)amino)piperidin-1-yl)propan-1-one]  8.74
20. COc1nc(NC2CC3(COC3)C2)nn2ccc(-c3ccc4nccnc4c3)c12 [Compound 385, 4-Methoxy-5-(quinoxalin-6-yl)-N-(2-oxaspiro[3.3]heptan-6-yl)pyrrolo[2,1-f][11,2,4]triazin-2-amine]  8.77
21. COc1nc(NC2CCC3(CC2)CN(C(C)=O)C3)nn2ccc(-c3ccn4nccc4c3)c12 [Compound 40, 1-(7-((4-Methoxy-5-(pyrazolo[1,5-a]pyridin-5-yl)pyrrolo[2,1-f][1,2,4]triazin-2-yl)amino)-2-azaspiro[3.5]nonan-2-yl)ethan-1-one]  8.80
22. COc1nc(N[C@@H]2CCN(C3COC3)CC2(F)F)nn2ccc(-c3cc(F)c4nc(C)n(C(C)C)c4c3)c12 [Compound 551, (R)—N-(3,3-Difluoro-1-(oxetan-3-yl)piperidin-4-yl)-5-(4-fluoro-1-isopropyl-2-methyl-1H-benzo[d]imidazol-6-yl)-4-methoxypyrrolo[2,1-f][1,2,4]triazin-2-amine]  8.80
23. COc1nc(N[C@@H]2CCN(C(C)=O)CC2(F)F)nn2ccc(-c3ccc4nnn(CC(F)(F)F)c4c3)c12 [Compound 921, (R)-1-(3,3-Difluoro-4-((4-methoxy-5-(1-(2,2,2-trifluoroethyl)-1H-benzo[d]1[1,2,3]triazol-6-yl)pyrrolo[2,1-f][1,2,4]triazin-2-yl)amino)piperidin-1-yl)ethan-1-one]  8.85
24. COc1nc(N[C@@H]2CCN(C(C)=O)CC2(F)F)nn2ccc(-c3ccc4nnn(C(C)C)c4c3)c12 [Compound 691, (R)-1-(3,3-Difluoro-4-((5-(1-isopropyl-1H-benzo[d][1,2,3]triazol-6-yl)-4-methoxypyrrolo[2,1-f][1,2,4]triazin-2-yl)amino)piperidin-1-yl)ethan-1-one]  8.85
25. COc1nc(NCC(C)(C)O)nn2ccc(-c3ccc4nnn(CC(F)F)c4c3)c12 [Compound 696, 1-((5-(1-(2,2-Difluoroethyl)-1H-benzo[d][1,2,3]triazol-6-yl)-4-methoxypyrrolo[2,1-f][1,2,4]triazin-2-yl)amino)-2-methylpropan-2-ol]  8.89
26. COc1nc(N[C@H]2CC[C@]3(CCO3)CC2)nn2ccc(-c3cnc4nccn4c3)c12 [Compound 274, 5-(Imidazo[1,2-a]pyrimidin-6-yl)-4-methoxy-N-((4s,7s)-1-oxaspiro[3.5]nonan-7-yl)pyrrolo[2,1-f][1,2,4]triazin-2-amine]  9.00
27. COc1nc(N[C@H]2C[C@](C)(NC(C)=O)C2)nn2ccc(-c3ccn4nccc4c3)c12 [Compound 96, N-(trans-3-((4-Methoxy-5-(pyrazolo[1,5-a]pyridin-5-yl)pyrrolo[2,1-f][1,2,4]triazin-2-yl)amino)-1-methylcyclobutyl)acetamide]  9.00
28. COc1nc(N[C@@H]2CCN(C3COC3)CC2(F)F)nn2ccc(-c3ccc4nnn(CCF)c4c3)c12 [Compound 670, (R)—N-(3,3-Difluoro-1-(oxetan-3-yl)piperidin-4-yl)-5-(1-(2-fluoroethyl)-1H-benzo[d][1,2,3]triazol-6-yl)-4-methoxypyrrolo[2,1-f][1,2,4]triazin-2-amine]  9.10
29. COc1nc(N[C@H]2CC[C@@H](NC(C)=O)CC2)nn2ccc(-c3ccc4nccn4c3)c12 [Compound 53, N-(cis-4-((5-(Imidazo[1,2-a]pyridin-6-yl)-4-methoxypyrrolo[2,1-f][1,2,4]triazin-2-yl)amino)cyclohexyl)acetamide]  9.15
30. COc1nc(N[C@H]2CC[C@](C)(O)CC2)nn2ccc(-c3ccc4ncn(CC(F)F)c4c3)c12 [Compound 1139, (1r,4r)-4-((5-(1-(2,2-Difluoroethyl)-1H-benzo[d]imidazol-6-yl)-4-methoxypyrrolo[2,1-f][1,2,4]triazin-2-yl)amino)-1-methylcyclohexan-1-ol]  9.30
